{"source": "paper PMC3997483", "about": "“Aminostyrylbenzofuran Directly Reduces Oligomeric Amyloid-β and Reverses Cognitive Deficits in Alzheimer Transgenic Mice” (PLoS ONE, 2014)", "key": {"[1]": {"assay": "Metabolic stability in liver microsomes", "type": "in vitro ADME", "details": "dog liver microsomes"}, "[2]": {"assay": "Pharmacokinetics IV/PO in dogs", "type": "in vivo, beagle dogs", "details": "for AUC(0-t): read-out: AUC0–24h", "protocol": "Pharmacokinetics profile of KMS88009 was obtained using ICR mice, SD rats, beagle dogs and cynomolgus monkeys. Animals were fasted overnight before KMS88009 administration. Mice were divided into 2 groups to receive KMS88009 as a single dose of 2.1 mg/kg intravenous (IV) bolus or 10 mg/kg orally (PO) by gavage. Additionally, KMS88009 was administered orally to estimate the BBB penetration in mice (10, 30 and 100 mg/kg). […] Dog received KMS88009 either as an IV bolus (1 mg/kg) via the great saphenous vein or by oral gavage (4 mg/kg). KMS88009 was administrated to monkeys as an IV bolus (1 mg/kg) via the femoral vein or by oral gavage (4 mg/kg). Vehicle for IV and PO administration was DMSO/tween-20/saline (3.3∶19.8∶[…]). […]. Brain samples were weighed and Daunce-homogenized in 10-fold volume of ice-chilled 4% bovine serum albumin (BSA) solution at room temperature. Plasma and brain homogenates were kept frozen at −70°C until analysis. The levels of KMS88009 were determined by the LC-MS/MS analysis. Pharmacokinetic parameters, time to the maximum concentration (Tmax), maximum concentration (Cmax), elimination half-life (T1/2), volume of distribution (Vd), clearance (Cl) and mean residual time (MRT), of KMS88009 were calculated based on plasma concentration-time data by a non-compartmental method using WinNonlin Version 5.2 (Pharsight, USA). Area under the curve from 0 to 24 hr (AUC0-24h) and area under the curve from 0 to infinity (AUCINF) were obtained by linear and log linear trapezoidal summations."}, "[3]": {"assay": "Dissociation constant (pKa), GLpKa titration", "type": "physicochemical", "details": "aqueous 150 mM NaCl solution", "protocol": "Dissociation constant (pKa) and partition coefficient (log P) Dissociation constant (pKa) and partition coefficient (log P) of KMS88009 were measured by a pH-method using GLpKa (Sirius, UK). pKa was measured by titrating KMS88009 solution and calculated from the shape of the titration curve. […] Log P of KMS88009 was calculated by a two-phase acid-base titration in a mixture of water and octanol. Three separate potentiometric titrations of KMS88009 were carried out at 23 ℃ in various octanol-water (0.15 M KCl) mixtures (0.5% to 50% octanol). The initial pH was adjusted to 10.0 with standardized 0.5 M NaOH prior to each titration. Titrations were performed with standardized 0.5 M HCl to pH 1.8. The pKa and log P values were calculated using RefinementPro software (Sirius, UK). Values are expressed as the mean ± SD of 3 independent experiments."}, "[4]": {"assay": "Stability in PBS buffer (plasma stability study)", "type": "in vitro ADME", "details": "37 °C"}, "[5]": {"system": "APP/PS1 TG mice", "assay": "Contextual fear conditioning, prophylactic trial", "type": "in vivo, mouse", "details": "vehicle TG 15.3%, WT 54.1%"}, "[6]": {"system": "soluble Aβ oligomers", "assay": "Dot-blot immunoassay (A11/6E10) of soluble Aβ oligomers in hippocampus, prophylactic trial", "type": "in vivo, mouse", "details": "hippocampus soluble fraction", "protocol": "(§1) Mice subjected to behavior tests were sacrificed and levels of Aβ in their brains were analyzed. After removing olfactory lobe and cerebellum of brain, hippocampus and cerebral cortex were separated. The separated regions were Dounce-homogenized first in 10-fold mass of a lysis buffer (RIPA, 150 mM NaCl, 1% NP-40, 0.5% deoxycholic acid, 0.1% SDS and 50 mM tris, pH 8.0) or tris buffer (50 mM tris and pH 8.0) containing protease inhibitor cocktail (Pierce, USA) for prophylactic or therapeutic treatment groups, respectively. The homogenates were then centrifuged at 16,000 g for 20 min at 4°C. The supernatant (soluble Aβ fraction) was collected and stored at −70°C until analyzed. The resulting pellet was solubilized in 20-fold mass of cold guanidine solution (5 M guanidine HCl, 50 mM tris HCl and pH 8.0) at room temperature for 4 hr followed by dilution with cold Dulbecco's phosphate buffered saline (PBS) with 5% BSA and 0.03% tween-20. The diluent was centrifuged at 16,000 g for 20 min at 4°C to obtain the insoluble Aβ fraction. The tissue concentrations of Aβ40 and Aβ42 in the soluble and insoluble fraction were measured using Aβ-detecting sandwich enzyme-linked immunosorbent assay (ELISA) kit (BioSource, USA). The levels of soluble Aβ oligomers were measured by a dot-blot immunoassay with an anti-oligomer antibody and an anti-Aβ antibody on soluble fraction of hippocampus homogenates. The homogenate sample (3 µL) was spotted onto nitrocellulose membrane (Whatman, UK). After blocking with 5% BSA in tris-buffered saline (TBS) for 1 hr at room temperature, the membrane was incubated with rabbit anti-oligomer polyclonal antibody (A11; 1∶1,000; Millipore, USA) overnight at 4°C, followed by incubation with HRP-secondary anti-rabbit antibody (1∶5,000; Millipore, USA) for 1 hr at room temperature. Blots were developed using ECL reagents (PerkinElmer, USA). […] The density of dots was analyzed with Multi Gauge program (Fuji Film, Japan) and the data was normalized to the average density of the TG control group. […]"}, "[7]": {"system": "Aβ40 and Aβ42", "assay": "Aβ40/Aβ42 sandwich ELISA of hippocampus, therapeutic trial", "type": "in vivo, mouse", "details": "30 mg/kg/day, 3 months", "protocol": "as §1"}}, "note": "Read-outs that look alike come from different tables or passages of the source."}
{"smiles": "COc1ccc2cc(C=Cc3ccc(N(C)C)cc3)oc2c1", "note": "[KMS88009, 6-methoxy-2-(4-dimethylaminostyryl) benzofuran]", "values": [{"measurement": "half-life at 5 µM", "setting": "[1]", "result": "0.355 ± 0.0133", "unit": "h"}, {"measurement": "remaining at 1 h, 5 µM", "setting": "[1]; read-out: Remaining % of parent molecule at 60 min.", "result": "14.8 ± 0.2", "unit": "%"}, {"measurement": "MRT last", "setting": "[2]; beagle, plasma, dog IV 1 mg/kg", "result": "2.9 ± 0.6", "unit": "h"}, {"measurement": "Vd", "setting": "[2]; beagle, plasma, dog IV 1 mg/kg", "result": "115 ± 61.1", "unit": "L/kg"}, {"measurement": "clearance", "setting": "[2]; beagle, plasma, dog IV 1 mg/kg", "result": 158, "unit": "mL/min/kg"}, {"measurement": "half-life", "setting": "[2]; beagle, plasma, dog IV 1 mg/kg", "result": "8.1 ± 1.4", "unit": "h"}, {"measurement": "MRT last", "setting": "[2]; beagle, plasma, dog PO 4 mg/kg", "result": "3.8 ± 0.4", "unit": "h"}, {"measurement": "Tmax", "setting": "[2]; beagle, plasma, dog PO 4 mg/kg", "result": 1, "unit": "h"}, {"measurement": "half-life", "setting": "[2]; beagle, plasma, dog PO 4 mg/kg", "result": "8.8 ± 2.5", "unit": "h"}, {"measurement": "AUC(0-inf)", "setting": "[2]; beagle, dog IV 1 mg/kg, plasma", "result": "117 ± 43.6", "unit": "ng·h/mL"}, {"measurement": "AUC(0-t)", "setting": "[2]; beagle, dog IV 1 mg/kg, plasma", "result": "112 ± 43.4", "unit": "ng·h/mL"}, {"measurement": "AUC(0-inf)", "setting": "[2]; beagle, dog PO 4 mg/kg, plasma", "result": "103 ± 13", "unit": "ng·h/mL"}, {"measurement": "Cmax", "setting": "[2]; beagle, dog PO 4 mg/kg, plasma", "result": "32.8 ± 9.8", "unit": "ng/mL"}, {"measurement": "AUC(0-t)", "setting": "[2]; beagle, dog PO 4 mg/kg, plasma", "result": "97.1 ± 14", "unit": "ng·h/mL"}, {"measurement": "BA", "setting": "[2]; dog PO 4 mg/kg vs IV 1 mg/kg", "result": 21.6, "unit": "%"}, {"measurement": "pKa", "setting": "[3]", "result": "1.5 ± 0.12"}, {"measurement": "Parent compound remaining", "setting": "[4]; 0.5 hr", "result": 99.1, "unit": "%"}, {"measurement": "Parent compound remaining", "setting": "[4]; 1 hr", "result": 88.6, "unit": "%"}, {"measurement": "Parent compound remaining", "setting": "[4]; 2 hr", "result": 100.0, "unit": "%"}, {"measurement": "Parent compound remaining", "setting": "[4]; 6 hr", "result": 100.0, "unit": "%"}, {"measurement": "freezing responses (contextual fear conditioning)", "setting": "[5]; PO 10 mg/kg/day", "result": 42.3, "unit": "%"}, {"measurement": "freezing responses (contextual fear conditioning)", "setting": "[5]; PO 30 mg/kg/day", "result": 48.6, "unit": "%"}, {"measurement": "freezing responses (contextual fear conditioning)", "setting": "[5]; PO 100 mg/kg/day", "result": 49.3, "unit": "%"}, {"measurement": "reduction of soluble oligomeric Aβ vs vehicle-treated TG group", "setting": "[6]; 10 mg/kg/day", "result": 43.1, "unit": "%"}, {"measurement": "reduction of soluble oligomeric Aβ vs vehicle-treated TG group", "setting": "[6]; 30 mg/kg/day", "result": 43.2, "unit": "%"}, {"measurement": "reduction of soluble oligomeric Aβ vs vehicle-treated TG group", "setting": "[6]; 100 mg/kg/day", "result": 46.4, "unit": "%"}, {"measurement": "decrease of insoluble Aβ42 level vs TG littermates", "setting": "[7]", "result": 50.9, "unit": "%"}, {"measurement": "decrease of insoluble Aβ40 level vs TG mice", "setting": "[7]; not statistically significant", "result": 44.9, "unit": "%"}, {"measurement": "decrease of soluble Aβ40 level vs TG mice", "setting": "[7]; not statistically significant", "result": 19.4, "unit": "%"}]}
